# Test results taken from article PMC12196347, “Evaluating Triazole-Substituted Pyrrolopyrimidines as CSF1R Inhibitors” (Molecules, 2025).
# Tests used:
# CSF1R = target: T1, CSF1R (Homo sapiens, UniProt P07333); experiment: CSF1R enzymatic inhibition, TR-FRET-based LANCE Ultra assay; format: biochemical; conditions: single 8-point titrations, ATP concentration 25 µM, read-out: Enz. IC50
# T1 sequence (P07333 539-972 limits assumed): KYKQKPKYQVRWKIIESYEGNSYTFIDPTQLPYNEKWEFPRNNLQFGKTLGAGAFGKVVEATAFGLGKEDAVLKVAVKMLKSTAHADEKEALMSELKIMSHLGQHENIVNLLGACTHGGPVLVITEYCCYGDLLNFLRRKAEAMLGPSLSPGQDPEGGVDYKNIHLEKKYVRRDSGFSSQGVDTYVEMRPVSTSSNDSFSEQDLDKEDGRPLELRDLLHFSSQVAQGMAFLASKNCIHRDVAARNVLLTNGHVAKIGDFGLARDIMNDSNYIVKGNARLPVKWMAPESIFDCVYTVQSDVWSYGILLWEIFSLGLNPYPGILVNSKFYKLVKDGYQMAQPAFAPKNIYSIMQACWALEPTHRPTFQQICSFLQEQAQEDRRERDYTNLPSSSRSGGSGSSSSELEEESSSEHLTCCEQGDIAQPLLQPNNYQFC
# CSF1R Ba/F3 cells = experiment: Cell viability assay, Ba/F3 cells engineered to be dependent on CSF1R; format: cell-based; conditions: duplicate measurements; for IC50: Mus musculus, BaF3, Ba/F3 cells dependent on CSF1R; for CSF1R Ba/F3 IC50: Ba/F3 cells dependent on CSF1R
# [1] = test system: IL-3 dependent Ba/F3 cell line (CSF1R independent); experiment: Control assay for cellular toxicity, Ba/F3 cells dependent on IL-3; format: cell-based; conditions: Mus musculus, BaF3; Ba/F3 cells dependent on IL-3, control for cellular toxicity
# [2] = Kinetic solubility, spectrophotometric; format: physicochemical; conditions: aqueous buffer, kinetic from dmso stock, spectrophotometrically at pH 7.4 in HEPES buffer
IC50 (CSF1R) [µM],IC50 (CSF1R Ba/F3 cells) [µM],solubility kinetic [2] [µM],CSF1R Ba/F3 IC50 (CSF1R Ba/F3 cells),Structure (SMILES),IC50 [1] [µM]
0.0015,4.6 ± 2.7,1.7,,"CN(CC1CCOCC1)c1ncnc2[nH]c(-c3cn(Cc4ccc(F)cc4)nn3)cc12 [Compound 24b, 6-(1-(4-Fluorobenzyl)-1H-1,2,3-triazol-4-yl)-N-methyl-N-((tetrahydro-2H-pyran-4-yl)methyl)-7H-pyrrolo[2,3-d]pyrimidin-4-amine]",> 10
< 0.001,> 10,76,No measurable cell activity,"CN(CC1CCOCC1)c1ncnc2[nH]c(-c3cn(C4CCOCC4)nn3)cc12 [Compound 29b, N-Methyl-6-(1-(tetrahydro-2H-pyran-4-yl)-1H-1,2,3-triazol-4-yl)-N-((tetrahydro-2H-pyran-4-yl)methyl)-7H-pyrrolo[2,3-d]pyrimidin-4-amine]",> 10
0.0063,> 10,1.1,,"Cc1ccc(Cn2cc(-c3cc4c(N(C)Cc5cccc(C)c5)ncnc4[nH]3)nn2)cc1 [Compound 25a, N-Methyl-N-(3-methylbenzyl)-6-(1-(4-methylbenzyl)-1H-1,2,3-triazol-4-yl)-7H-pyrrolo[2,3-d]pyrimidin-4-amine]",> 10
< 0.001,3.7 ± 1.9,4.9,,"CN(CC1CCOCC1)c1ncnc2[nH]c(-c3cn(Cc4ccccc4)nn3)cc12 [Compound 23b, 6-(1-Benzyl-1H-1,2,3-triazol-4-yl)-N-methyl-N-((tetrahydro-2H-pyran-4-yl)methyl)-7H-pyrrolo[2,3-d]pyrimidin-4-amine]",> 10
0.0019,> 10,0.3,,"Cc1cccc(CN(C)c2ncnc3[nH]c(-c4cn(-c5ccccc5)nn4)cc23)c1 [Compound 18a, N-Methyl-N-(3-methylbenzyl)-6-(1-phenyl-1H-1,2,3-triazol-4-yl)-7H-pyrrolo[2,3-d]pyrimidin-4-amine]",> 10
0.0059,6,1.3,,"COc1ccc(-n2cc(-c3cc4c(N(C)Cc5cccc(C)c5)ncnc4[nH]3)nn2)cc1 [Compound 21a, 6-(1-(4-Methoxyphenyl)-1H-1,2,3-triazol-4-yl)-N-methyl-N-(3-methylbenzyl)-7H-pyrrolo[2,3-d]pyrimidin-4-amine]",> 10
0.0091,3.2 ± 0.9,0.7,,"Cc1ccc(-n2cc(-c3cc4c(N(C)CC5CCOCC5)ncnc4[nH]3)nn2)cc1 [Compound 20b, N-Methyl-N-((tetrahydro-2H-pyran-4-yl)methyl)-6-(1-(p-tolyl)-1H-1,2,3-triazol-4-yl)-7H-pyrrolo[2,3-d]pyrimidin-4-amine]",> 10
< 0.001,1 ± 0.2,45,,"CN(CC1CCOCC1)c1ncnc2[nH]c(-c3cn(CC4CCOCC4)nn3)cc12 [Compound 31b, N-Methyl-N-((tetrahydro-2H-pyran-4-yl)methyl)-6-(1-((tetrahydro-2H-pyran-4-yl)methyl)-1H-1,2,3-triazol-4-yl)-7H-pyrrolo[2,3-d]pyrimidin-4-amine]",> 10
0.0077,> 10,0.4,,"Cc1cccc(CN(C)c2ncnc3[nH]c(-c4cn(-c5ccc(F)cc5)nn4)cc23)c1 [Compound 19a, 6-(1-(4-Fluorophenyl)-1H-1,2,3-triazol-4-yl)-N-methyl-N-(3-methylbenzyl)-7H-pyrrolo[2,3-d]pyrimidin-4-amine]",> 10
0.002,> 10,0.3,,"Cc1cccc(CN(C)c2ncnc3[nH]c(-c4cn(Cc5ccccc5)nn4)cc23)c1 [Compound 23a, 6-(1-Benzyl-1H-1,2,3-triazol-4-yl)-N-methyl-N-(3-methylbenzyl)-7H-pyrrolo[2,3-d]pyrimidin-4-amine]",> 10
< 0.001,2.7 ± 1,2.5,,"Cc1cccc(CN(C)c2ncnc3[nH]c(-c4cn(CC5CCOCC5)nn4)cc23)c1 [Compound 31a, N-Methyl-N-(3-methylbenzyl)-6-(1-((tetrahydro-2H-pyran-4-yl)methyl)-1H-1,2,3-triazol-4-yl)-7H-pyrrolo[2,3-d]pyrimidin-4-amine]",> 10
0.0021,> 10,11,No measurable cell activity,"CN(CC1CCOCC1)c1ncnc2[nH]c(-c3cn(-c4ccc(F)cc4)nn3)cc12 [Compound 19b, 6-(1-(4-Fluorophenyl)-1H-1,2,3-triazol-4-yl)-N-methyl-N-((tetrahydro-2H-pyran-4-yl)methyl)-7H-pyrrolo[2,3-d]pyrimidin-4-amine]",> 10
0.0282,> 10,3,,"Cc1ccc(-n2cc(-c3cc4c(N(C)Cc5cccc(C)c5)ncnc4[nH]3)nn2)cc1 [Compound 20a, N-Methyl-N-(3-methylbenzyl)-6-(1-(p-tolyl)-1H-1,2,3-triazol-4-yl)-7H-pyrrolo[2,3-d]pyrimidin-4-amine]",> 10
< 0.001,1 ± 0.1,5.5,,"Cc1cccc(CN(C)c2ncnc3[nH]c(-c4cn(CCCO)nn4)cc23)c1 [Compound 28a, 3-(4-(4-(Methyl(3-methylbenzyl)amino)-7H-pyrrolo[2,3-d]pyrimidin-6-yl)-1H-1,2,3-triazol-1-yl)propan-1-ol]",> 10
< 0.001,1.1 ± 0.1,51,,"Cc1cccc(CN(C)c2ncnc3[nH]c(-c4cn(C5CCN(C)CC5)nn4)cc23)c1 [Compound 30a, N-Methyl-N-(3-methylbenzyl)-6-(1-(1-methylpiperidin-4-yl)-1H-1,2,3-triazol-4-yl)-7H-pyrrolo[2,3-d]pyrimidin-4-amine]",> 10
< 0.001,> 10,20,,"Cc1cccc(CN(C)c2ncnc3[nH]c(-c4cn(C5CCOCC5)nn4)cc23)c1 [Compound 29a, N-Methyl-N-(3-methylbenzyl)-6-(1-(tetrahydro-2H-pyran-4-yl)-1H-1,2,3-triazol-4-yl)-7H-pyrrolo[2,3-d]pyrimidin-4-amine]",> 10
0.002,> 10,0.2,,"Cc1cccc(CN(C)c2ncnc3[nH]c(-c4cn(Cc5ccc(F)cc5)nn4)cc23)c1 [Compound 24a, 6-(1-(4-Fluorobenzyl)-1H-1,2,3-triazol-4-yl)-N-methyl-N-(3-methylbenzyl)-7H-pyrrolo[2,3-d]pyrimidin-4-amine]",> 10
0.0011,> 10,495,inactive,"CN(CC1CCOCC1)c1ncnc2[nH]c(-c3cn(CCCO)nn3)cc12 [Compound 28b, 3-(4-(4-(Methyl((tetrahydro-2H-pyran-4-yl)methyl)amino)-7H-pyrrolo[2,3-d]pyrimidin-6-yl)-1H-1,2,3-triazol-1-yl)propan-1-ol]",> 10
,> 10,14,,"CN(CC1CCOCC1)c1ncnc2[nH]c(-c3cn(-c4ccccc4)nn3)cc12 [Compound 18b, N-Methyl-6-(1-phenyl-1H-1,2,3-triazol-4-yl)-N-((tetrahydro-2H-pyran-4-yl)methyl)-7H-pyrrolo[2,3-d]pyrimidin-4-amine]",> 10
